In patent US10064848B2, “Pyridic ketone derivatives, method of preparing same, and pharmaceutical application thereof” (Shanghai Hengrui Pharmaceutical Co., Ltd., priority 2013, dated 2018) one finds IC50 data, which are given here for five molecules.

For one experiment, the target named is CYP2C6 (Homo sapiens, UniProt P10635). Briefly: In vitro CYP enzyme inhibition, human liver microsomes. In kind it is in vitro ADME. The note with it: single point method. The method, then:
(§1) Human liver microsome incubation system was used to reflect the activity of enzymes based on the amount of metabolites produced. Enzyme inhibition of the test compounds was investigated on CYP1A2, CYP2C9, […], CYP3A4m, CYP3A4t and CYP2C19, and IC50 values (a concentration of the test compound that is required for 50% inhibition of enzyme activity) were measured. […] The appropriate amount of test compound standard sample was weighed, and diluted with DMSO to 50 mM to obtain stock solution I. The stock solution I was diluted with PBS to 100 μM to obtain the reaction liquid which is to be used in incubation. [table] The reaction mixture was prepared: 60 μL [table] The above mixture was preincubated for 5 minutes at 37° C., followed by addition of 40 μL of NADPH (2.5 mM, PBS formulation). The mixture solution was incubated for 20 minutes at 37° C. All incubated samples were set to double samples. 300 μL ice-cold acetonitrile was added to terminate the reaction. The reaction solution was added with 100 μl internal standard, mixed uniformly, and centrifuged for 10 minutes at 3500 rpm. The supernatant was transferred to the LC-MS/MS analysis. The activity of enzymes was reflected by the production amount of metabolites. Using a single point method, the formula was calculated as follows: According to the known literature: IC50>10 μM belongs to weaker inhibition, 1 μM<IC50<10 μM belong to moderate inhibition, IC50<1 μM belong to strong inhibition.

A further experiment concerns the target T1, CYP3A4m (Homo sapiens, UniProt P08684).
T1 construct: from tissue; host or cells: human liver microsomes
The description is as above. In kind it is in vitro ADME. The conditions noted are these: probe Midazolam, single point method. The method, then:
as §1

The next experiment deals with T2, CYP3A4t (Homo sapiens, UniProt P08684).
T2 construct: from tissue; host or cells: human liver microsomes
The experiment is described as above. The format is in vitro ADME. The conditions noted are these: probe Testosterone, single point method. The method, then:
as §1

The target of a further experiment is T3, CYP1A2 (Homo sapiens, UniProt P05177).
T3 construct: from tissue; host or cells: human liver microsomes
T3 sequence (P05177 1-516): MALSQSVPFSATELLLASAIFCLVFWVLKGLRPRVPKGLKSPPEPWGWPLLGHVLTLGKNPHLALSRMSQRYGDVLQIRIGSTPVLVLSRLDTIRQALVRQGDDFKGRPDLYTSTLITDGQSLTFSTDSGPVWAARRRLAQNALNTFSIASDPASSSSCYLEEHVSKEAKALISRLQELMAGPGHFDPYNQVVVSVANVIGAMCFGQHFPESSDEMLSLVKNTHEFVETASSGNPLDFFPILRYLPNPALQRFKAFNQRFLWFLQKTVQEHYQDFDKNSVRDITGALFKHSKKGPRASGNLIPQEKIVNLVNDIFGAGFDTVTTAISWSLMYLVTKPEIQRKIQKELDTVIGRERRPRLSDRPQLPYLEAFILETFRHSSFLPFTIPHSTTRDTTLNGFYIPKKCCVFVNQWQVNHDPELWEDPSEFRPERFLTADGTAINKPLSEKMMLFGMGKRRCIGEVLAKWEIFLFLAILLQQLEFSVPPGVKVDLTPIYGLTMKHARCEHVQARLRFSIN
Described as above. The conditions noted are these: probe Phenacetin, single point method. In kind it is in vitro ADME. The method, then:
as §1

The target in another experiment is T4, CYP2C9 (Homo sapiens, UniProt P11712).
T4 construct: from tissue; host or cells: human liver microsomes
The experiment is described as above. In kind it is in vitro ADME. The note with it: probe Diclofenac, single point method. The method, then:
as §1

The test system of another experiment is HCT116 cell. Briefly: Proliferation inhibition on human colon cancer cell HCT116 (CCK8). The format is cell-based. The note with it: HCT-116, HCT116, 72 hours. From the text: The following in vitro cell assay was used to determine the activity of the compounds of the present invention for inhibiting the proliferation of human colon cancer cell, and the activity is expressed as IC50.
Cell line which was used in the experiment: HCT116 (Cell Bank of the Chinese Academy of Sciences, Catalog No. TCHu99).
General programs of this kind of assay were as follows: First, the cell line to be tested was inoculated in a 384-well culture plate with a suitable cell concentration of 1000 cells/well, and was cultured in an incubator under the conditions of 37° C. and 5% CO2, then grown overnight. The medium was replaced by new medium added with a series of concentrations (1000 nM, 250 nM, 62.50 nM, 15.63 nM, 3.91 nM, 0.98 nM, 0.24 nM, 0.06 nM, 0.015 nM, 0.004 nM) of the test compound solutions. The plates were placed back in the incubator, and continuously cultured for 72 hours. After 72 hours, CCK8 (Cell Counting Kit-8, Catalog No.: CK04, purchased from colleagues chemical company) method was used to determine the proliferation inhibition activity of the test compounds. IC50 values were calculated from the inhibition data of the test compounds at a series of different concentrations.
The above assay was used to determine the biochemical activity of the compounds of the present invention.

T2 sequence (P08684 whole entry): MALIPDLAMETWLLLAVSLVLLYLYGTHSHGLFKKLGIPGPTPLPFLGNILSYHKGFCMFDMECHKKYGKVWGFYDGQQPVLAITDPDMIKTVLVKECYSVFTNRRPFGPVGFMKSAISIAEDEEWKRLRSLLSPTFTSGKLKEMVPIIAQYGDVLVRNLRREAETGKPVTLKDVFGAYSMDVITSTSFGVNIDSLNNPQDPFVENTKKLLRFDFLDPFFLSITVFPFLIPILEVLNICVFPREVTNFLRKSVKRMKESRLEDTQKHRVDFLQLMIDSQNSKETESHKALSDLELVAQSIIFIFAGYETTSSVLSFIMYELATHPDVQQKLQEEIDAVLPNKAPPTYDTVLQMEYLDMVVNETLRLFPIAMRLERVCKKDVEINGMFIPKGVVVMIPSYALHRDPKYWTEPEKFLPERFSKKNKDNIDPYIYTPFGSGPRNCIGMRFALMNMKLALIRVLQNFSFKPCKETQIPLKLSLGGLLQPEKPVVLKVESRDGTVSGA
T1 sequence (P08684 whole entry): as above
T4 sequence (P11712 whole entry): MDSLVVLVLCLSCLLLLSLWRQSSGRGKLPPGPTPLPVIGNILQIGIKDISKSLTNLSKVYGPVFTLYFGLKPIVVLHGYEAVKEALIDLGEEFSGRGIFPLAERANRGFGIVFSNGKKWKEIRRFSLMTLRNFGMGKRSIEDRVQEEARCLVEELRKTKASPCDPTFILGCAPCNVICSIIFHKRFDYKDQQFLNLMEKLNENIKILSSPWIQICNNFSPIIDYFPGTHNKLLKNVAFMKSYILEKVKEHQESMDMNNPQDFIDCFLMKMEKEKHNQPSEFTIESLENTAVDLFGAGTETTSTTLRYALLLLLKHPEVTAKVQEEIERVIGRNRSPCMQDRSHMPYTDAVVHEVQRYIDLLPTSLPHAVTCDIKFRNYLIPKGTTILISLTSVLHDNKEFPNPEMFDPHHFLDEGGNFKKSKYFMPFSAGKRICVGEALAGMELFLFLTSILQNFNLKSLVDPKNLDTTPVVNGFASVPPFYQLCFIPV
Sequence of CYP2C6 (P10635 whole entry): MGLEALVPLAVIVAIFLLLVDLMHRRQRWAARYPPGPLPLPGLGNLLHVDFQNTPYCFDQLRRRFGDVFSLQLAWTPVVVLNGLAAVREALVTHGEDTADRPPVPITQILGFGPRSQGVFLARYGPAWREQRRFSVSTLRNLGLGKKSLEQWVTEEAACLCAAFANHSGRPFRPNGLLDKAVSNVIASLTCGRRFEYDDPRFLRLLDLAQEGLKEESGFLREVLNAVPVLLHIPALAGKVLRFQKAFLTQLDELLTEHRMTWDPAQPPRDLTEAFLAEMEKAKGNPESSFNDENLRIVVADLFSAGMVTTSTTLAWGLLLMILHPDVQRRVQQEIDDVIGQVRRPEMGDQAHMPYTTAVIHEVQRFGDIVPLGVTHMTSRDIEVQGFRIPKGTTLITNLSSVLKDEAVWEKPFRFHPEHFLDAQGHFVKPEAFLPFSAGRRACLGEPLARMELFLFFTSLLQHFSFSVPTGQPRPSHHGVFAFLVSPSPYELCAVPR

With `CCS(=O)(=O)Nc1cccc(Oc2cc(=O)n(C)c(Nc3ccc(I)cc3F)c2C(N)=O)c1C` [Example 3, 4-(3-(ethylsulfonamido)-2-methylphenoxy)-2-((2-fluoro-4-iodophenyl)amino)-1-methyl-6-oxo-1,6-dihydropyridine-3-carboxamide], the half-inhibitory concentration (IC50) (commonly the concentration that inhibits the measured activity by half) against CYP2C6 is greater than 50 µM; on CYP3A4m it was greater than 50 µM; against CYP3A4t, greater than 50 µM; on CYP1A2, greater than 50 µM; against CYP2C9, greater than 50 µM; with HCT116 cell, 0.06 nM.
Turning to `Cc1c(F)cccc1Oc1cc(=O)n(C)c(Nc2ccc(I)cc2F)c1C(N)=O` [Example 1, 4-(3-fluoro-2-methylphenoxy)-2-((2-fluoro-4-iodophenyl)amino)-1-methyl-6-oxo-1,6-dihydropyridine-3-carboxamide], the IC50 was greater than 10 µM against CYP2C6; greater than 10 µM against CYP3A4m; greater than 10 µM against CYP3A4t; greater than 10 µM against CYP1A2; greater than 10 µM against CYP2C9; 8.6 nM in the experiment on HCT116 cell.
For `Cc1ncccc1Oc1cc(=O)n(C)c(Nc2ccc(I)cc2F)c1C(N)=O` [Example 29, 2-((2-fluoro-4-iodophenyl)amino)-1-methyl-4-((2-methylpyridin-3-yl)oxy)-6-oxo-1,6-dihydropyridine-3-carboxamide], the concentration for half-maximal inhibition (IC50) was greater than 10 µM against CYP2C6; greater than 10 µM on CYP3A4m; greater than 10 µM against CYP3A4t; greater than 10 µM against CYP1A2; greater than 10 µM on CYP2C9; 8.9 nM in the experiment with HCT116 cell.
Take `Cc1ccc(Oc2cc(=O)n(C)c(Nc3ccc(I)cc3F)c2C(N)=O)cn1` [Example 31, 2-((2-fluoro-4-iodophenyl)amino)-1-methyl-4-((6-methylpyridin-3-yl)oxy)-6-oxo-1,6-dihydropyridine-3-carboxamide]: the IC50 was greater than 10 µM against CYP2C6; greater than 10 µM at CYP3A4m; greater than 10 µM on CYP3A4t; greater than 10 µM at CYP1A2; greater than 10 µM against CYP2C9; 36.4 nM in the experiment with HCT116 cell.
As to `Cc1cc(F)ccc1Oc1cc(=O)n(C)c(Nc2ccc(I)cc2F)c1C(N)=O` [Example 22, 4-(4-fluoro-2-methylphenoxy)-2-((2-fluoro-4-iodophenyl)amino)-1-methyl-6-oxo-1,6-dihydropyridine-3-carboxamide], the half-inhibitory concentration (IC50) at CYP2C6 was greater than 10 µM; against CYP3A4m, greater than 10 µM; on CYP3A4t, greater than 10 µM; against CYP1A2, greater than 10 µM; at CYP2C9 it was greater than 10 µM; with HCT116 cell it was 10.3 nM.
